Where “and” joins values, the source holds several entries; their conditions need not be identical. Equal entries are not always repeated. Where two headings read alike, the source gives them in different places.
Legend:
[1] = system: Escherichia coli (strain BW25113); conditions: paper filter disks moistened with 0.75 M generated hydrogen peroxide in PBS on seeded LB agar, 37° C. for 18-24 hr, qualitative
Experimental: A plate with Lysogeny Broth (LB) Agar media was evenly seeded with a 1 Optical Density (OD) culture of Escherichia coli (strain BW25113). […] Plates were left to dry and incubated at 37° C. for 18-24 hr.

E. coli [2] = test: Killing (antimicrobial) test, CFU count; type: cell-based, Escherichia coli
Experimental: The initial colony forming units per mL (CFU/mL) were counted by plating 50 uL of a dilution 1:10,000 of the culture on LB agar plates. Next, 3 ml of the bacterial culture were treated with 1 ml of separately generated H2O2 0.75 M such that the final concentration of H2O2 in the bacteria containing plates reached around 0.25 M. To count the bacterial survival after treatment, 100 μl of 1:10,000 dilution were plated on LB agar plates and incubated at 37° C. for 18-24 hrs. The percentage of killed bacteria was calculated using the initial CFU as 100% and subtracting the recovered CFU after treatment.

E. coli [3] = conditions: 0.5 mL of 0.05 OD culture, 5 mA electric current for 30 min; triplicate experiments
Experimental: To test this an E. coli culture was grown from a single colony in LB media at 37° C., until reaching 0.05 OD. Next, 0.5 mL of this culture was treated with 5 mA of electric current for 30 min. The counting of CFU/ml before and after applying the current for 30 min was done by plating 50 and 100 μL of 1:10,000 dilution respectively on LB agar plates and incubating at 37° C. for 18-24 hrs.

Structure (SMILES): OO [hydrogen peroxide]
- zone of growth inhibition [1]: disinfection in region of clearance
- zone of growth inhibition ([1]; listed as H2O2): zone of growth inhibition
- Peroxide Treated (CFU x 10^6) (E. coli [2]; 3 ml culture (0.05 OD) + 1 ml separately generated H2O2 0.75 M, final around 0.25 M, triplicate experiments): 1.2 CFU x 10^6 and 0.7 CFU x 10^6
- % Killed (%) (E. coli [2]; final H2O2 around 0.25 M, initial CFU as 100%, triplicate experiments): 96.1% and 96% and 94.2%
- rate at which bacteria population is killed (E. coli [2]; from triplicate antimicrobial test, Table 4): 2.5 % CFU/μmol H2O2
- % Killed (%) (E. coli [3]): 99.6%

Source: US20240033502A1 (Wesbot, LLC, priority 2022, published 2024)
